Results published in ChEMBL document CHEMBL3832761, “MMV Pathogen Box Bioactivity Data” (2017).
In brackets after ≈: the same amount, converted by molar mass.

How the values were obtained:
Assay type in all cases: functional
[1] = test system: Mycobacterium tuberculosis; assay: AntiMycobacterium tuberculosis activity 2-week Alamar Blue 7H9/cholesterol/BSA/Tx MIC (uM); settings: 336 h
[2] = test system: Mycobacterium tuberculosis; assay: AntiMycobacterium tuberculosis activity 2-week 7H9/glucose/BSA/Tx MIC (uM); settings: 336 h
[3] = test system: Mycobacterium tuberculosis; assay: AntiMycobacterium tuberculosis activity 1-week 7H9/cholesterol/BSA/Tx MIC (uM); settings: 168 h
[4] = test system: Mycobacterium tuberculosis; assay: AntiMycobacterium tuberculosis activity 2-week 7H9/DPPC/cholesterol/BSA/Tx MIC (uM); settings: 336 h
[5] = test system: Mycobacterium tuberculosis; assay: AntiMycobacterium tuberculosis activity 1-week 7H9/glucose/BSA/Tx MIC (uM); settings: 168 h
[6] = test system: Mycobacterium tuberculosis; assay: (§1) AntiMycobacterium tuberculosis activity day 10 in 7H9/2.5mM butyrate/pH6/0.1mM nitrite MIC90 (uM); settings: 240 h
[7] = test system: Mycobacterium tuberculosis; assay: AntiMycobacterium tuberculosis activity Replicating form: Average MIC90 (uM)
[8] = test system: Mycobacterium tuberculosis; assay: AntiMycobacterium tuberculosis activity 2-week GAST/Fe MIC (uM); settings: 336 h
[9] = test system: Mycobacterium tuberculosis; assay: AntiMycobacterium tuberculosis activity 2-week Alamar Blue 7H9/ADC/Tw MIC (uM); settings: 336 h
[10] = test system: Mycobacterium tuberculosis; assay: as §1; settings: 240 h; remark: listed apart in the source
[11] = test system: Mycobacterium tuberculosis; assay: AntiMycobacterium tuberculosis activity 1-week GAST/Fe MIC (uM); settings: 168 h
[12] = test system: Mycobacterium tuberculosis; assay: AntiMycobacterium tuberculosis activity day 21 in 7H9/2.5mM butyrate/pH6/0.1mM nitrite MIC90 (uM); settings: 504 h
[13] = test system: Mycobacterium tuberculosis; assay: AntiMycobacterium tuberculosis activity day 21 MIC99 in 7H9/2.5mM butyrate/pH6/0.1mM nitrite MIC99 (uM); settings: 504 h
[14] = test system: Mycobacterium tuberculosis; assay: AntiMycobacterium tuberculosis activity 1-week 7H9/DPPC/cholesterol/BSA/Tx MIC (uM); settings: 168 h
HepG2 = assay: HepG2 CC50 (uM) Cytotoxicity; settings: Homo sapiens
[15] = test system: Mycobacterium tuberculosis; assay: AntiMycobacterium tuberculosis activity 2-week 7H9/ADC/Tw MIC (uM); settings: 336 h
[16] = test system: Mycobacterium tuberculosis; assay: AntiMycobacterium tuberculosis activity 1-week 7H9/ADC/Tw MIC (uM); settings: 168 h
[17] = test system: Mycobacterium tuberculosis; assay: AntiMycobacterium tuberculosis activity Non-Replicating form: Average MIC90 (uM)

Compound	MIC [1] [µM]	MIC [2] [µM]	MIC [3] [µM]	MIC [4] [µM]	MIC [5] [µM]	MIC90 [6] [µM]	MIC90 [7] [µM]	MIC [8] [µM]	MIC [9] [µM]	MIC90 [10] [µM]	MIC [11] [µM]	MIC90 [12] [µM]	MIC [13] [µM]	MIC [14] [µM]	CC50 (HepG2) [µM]	MIC [15] [µM]	MIC [16] [µM]	MIC90 [17] [µM]
COc1ccc(Nc2ccccc2NC(=O)c2ccc(O)nc2)cc1	0.6 (≈ 0.201 µg/mL)	37 (≈ 12.4 µg/mL)	0.3 (≈ 0.101 µg/mL)	2.3 (≈ 0.771 µg/mL)	37 (≈ 12.4 µg/mL)	> 50	28.6 (≈ 9.59 µg/mL)	< 0.02	12.5 (≈ 4.19 µg/mL)	1.5 (≈ 0.503 µg/mL)	< 0.02	6.25 (≈ 2.1 µg/mL)	> 50	0.6 (≈ 0.201 µg/mL)	42.5	37 (≈ 12.4 µg/mL)	37 (≈ 12.4 µg/mL)	17.8 (≈ 5.97 µg/mL)
O=C1O[C@@H](COc2ccon2)CN1c1cc(F)c(C2=CCN(Cc3ccccc3)CC2)c(F)c1	0.6 (≈ 0.28 µg/mL)	0.78 (≈ 0.365 µg/mL)	1.2 (≈ 0.561 µg/mL)	1.56 (≈ 0.729 µg/mL)	0.78 (≈ 0.365 µg/mL)	25 (≈ 11.7 µg/mL)	3.51 (≈ 1.64 µg/mL)	1.56 (≈ 0.729 µg/mL)	0.39 (≈ 0.182 µg/mL)	6.25 (≈ 2.92 µg/mL)	0.78 (≈ 0.365 µg/mL)	6.25 (≈ 2.92 µg/mL)	25 (≈ 11.7 µg/mL)	1.56 (≈ 0.729 µg/mL)	30.4	0.6 (≈ 0.28 µg/mL)	0.39 (≈ 0.182 µg/mL)	2.88 (≈ 1.35 µg/mL)
O=C(NCc1ccoc1)N1CCN(Cc2ccc3c(c2)OCO3)CC1	2.3 (≈ 0.79 µg/mL)	> 50	3.13 (≈ 1.07 µg/mL)	25 (≈ 8.58 µg/mL)	37 (≈ 12.7 µg/mL)	6.25 (≈ 2.15 µg/mL)	> 100	0.78 (≈ 0.268 µg/mL)	6.25 (≈ 2.15 µg/mL)	6.25 (≈ 2.15 µg/mL)	0.39 (≈ 0.134 µg/mL)	25 (≈ 8.58 µg/mL)	25 (≈ 8.58 µg/mL)	4.7 (≈ 1.61 µg/mL)	> 100	> 50	> 50	57.1 (≈ 19.6 µg/mL)
c1ccc(C[C@@H]2CN(c3nccc(Oc4ccc(-n5ccnc5)cc4)n3)CCN2)cc1	12.5 (≈ 5.16 µg/mL)	50 (≈ 20.6 µg/mL)	9.4 (≈ 3.88 µg/mL)	37 (≈ 15.3 µg/mL)	37 (≈ 15.3 µg/mL)	50 (≈ 20.6 µg/mL)	16.5 (≈ 6.82 µg/mL)	37 (≈ 15.3 µg/mL)	19 (≈ 7.84 µg/mL)	25 (≈ 10.3 µg/mL)	37 (≈ 15.3 µg/mL)	25 (≈ 10.3 µg/mL)	50 (≈ 20.6 µg/mL)	25 (≈ 10.3 µg/mL)	29	50 (≈ 20.6 µg/mL)	50 (≈ 20.6 µg/mL)	38.1 (≈ 15.7 µg/mL)
CC(C)(C)c1cnc(NC(=O)c2ccccc2O)s1	> 50	> 50	> 50	> 50	> 50	> 50	81.9 (≈ 22.6 µg/mL)	25 (≈ 6.91 µg/mL)	> 50	50 (≈ 13.8 µg/mL)	19 (≈ 5.25 µg/mL)	50 (≈ 13.8 µg/mL)	> 50	> 50	47.6	> 50	> 50	21 (≈ 5.81 µg/mL)
CCc1c(C)nc(-n2nc(C)cc2NC(=O)c2ccccc2SC)[nH]c1=O	> 50	> 50	6.25 (≈ 2.4 µg/mL)	> 50	9.4 (≈ 3.6 µg/mL)	> 50	> 100	0.2 (≈ 0.0767 µg/mL)	37 (≈ 14.2 µg/mL)	3.12 (≈ 1.2 µg/mL)	0.1 (≈ 0.0383 µg/mL)	> 50	> 50	3.13 (≈ 1.2 µg/mL)	1.3	> 50	> 50	1.25 (≈ 0.479 µg/mL)
Cc1nc2ccccn2c1C(=O)NCc1ccc(Cl)cc1	3.13 (≈ 0.938 µg/mL)	> 50	9.4 (≈ 2.82 µg/mL)	25 (≈ 7.49 µg/mL)	25 (≈ 7.49 µg/mL)	> 50	> 100	0.07 (≈ 0.021 µg/mL)	4.7 (≈ 1.41 µg/mL)	50 (≈ 15 µg/mL)	0.05 (≈ 0.015 µg/mL)	50 (≈ 15 µg/mL)	> 50	2.3 (≈ 0.689 µg/mL)	> 100	> 50	> 50	2 (≈ 0.6 µg/mL)
CC(Oc1ccccc1)C(=O)Nc1nc(-c2ccccn2)cs1 (configuration not stated)	19 (≈ 6.18 µg/mL)	50 (≈ 16.3 µg/mL)	9.4 (≈ 3.06 µg/mL)	> 50	12.5 (≈ 4.07 µg/mL)	6.25 (≈ 2.03 µg/mL)	91.3 (≈ 29.7 µg/mL)	2.3 (≈ 0.748 µg/mL)	12.5 (≈ 4.07 µg/mL)	12.5 (≈ 4.07 µg/mL)	1.56 (≈ 0.508 µg/mL)	12.5 (≈ 4.07 µg/mL)	6.25 (≈ 2.03 µg/mL)	25 (≈ 8.13 µg/mL)	29.3	12.5 (≈ 4.07 µg/mL)	12.5 (≈ 4.07 µg/mL)	41.7 (≈ 13.6 µg/mL)
COc1ccc2nc(C)cc(OCC(=O)Nc3ccccc3OC)c2c1	2.3 (≈ 0.81 µg/mL)	50 (≈ 17.6 µg/mL)	12.5 (≈ 4.4 µg/mL)	25 (≈ 8.81 µg/mL)	25 (≈ 8.81 µg/mL)	> 50	> 50	0.1 (≈ 0.0352 µg/mL)	2.3 (≈ 0.81 µg/mL)	> 50	0.05 (≈ 0.0176 µg/mL)	> 50	> 50	1.56 (≈ 0.55 µg/mL)	57.4	> 50	37 (≈ 13 µg/mL)	1.61 (≈ 0.567 µg/mL)
